From ChEMBL document CHEMBL5209576, “Membrane potential based assay for SLC5A7 using HEK-293 SLC5A7 OE cells” (2022) come the findings set out here.

The target of this experiment is T1, High affinity choline transporter 1 (Homo sapiens, UniProt Q9GZV3).
T1 sequence (Q9GZV3 whole entry): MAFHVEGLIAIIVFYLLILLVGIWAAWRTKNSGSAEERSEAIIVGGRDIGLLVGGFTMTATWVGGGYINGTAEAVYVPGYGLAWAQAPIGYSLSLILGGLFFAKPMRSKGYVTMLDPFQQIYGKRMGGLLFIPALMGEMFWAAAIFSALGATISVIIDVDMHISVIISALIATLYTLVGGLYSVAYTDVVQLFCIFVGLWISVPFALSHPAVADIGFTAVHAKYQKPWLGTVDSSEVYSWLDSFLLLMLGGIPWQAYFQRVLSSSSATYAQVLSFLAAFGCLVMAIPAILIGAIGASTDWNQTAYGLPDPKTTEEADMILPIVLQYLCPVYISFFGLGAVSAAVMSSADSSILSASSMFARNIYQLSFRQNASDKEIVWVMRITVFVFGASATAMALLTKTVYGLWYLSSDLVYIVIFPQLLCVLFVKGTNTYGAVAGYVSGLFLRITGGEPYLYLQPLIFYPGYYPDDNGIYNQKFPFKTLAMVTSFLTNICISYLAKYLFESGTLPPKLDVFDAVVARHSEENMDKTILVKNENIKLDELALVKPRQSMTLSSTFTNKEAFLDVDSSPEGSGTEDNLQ
Briefly: Substrate uptake and inhibition of the High Affinity Choline Transporter 1 (CHT1, SLC5A7) as assessed by the fluorescent FLIPR membrane potential dye in HEK-293 JumpIN-SLC5A7 cells (PubChem AID: 1794811). Format: functional, cell-based, HEK293.

Take `C[N+]1(C)CCOC(O)(c2ccc(-c3ccc(C4(O)C[N+](C)(C)CCO4)cc3)cc2)C1.[Br-].[Br-]` (configuration not stated): the IC50 entry (hek293) was “Inhibitor: Almost Complete Inhibition At A Concentration Of 10 Μm”. For orientation: EC50 means the concentration needed to bring the measured effect to its halfway point. In turn, `C[N+](C)(C)CCO.[Cl-]` [CHOLINE CHLORIDE] had an EC50 of 17 µM.
